# Test results from article PMC5712521, “Dendrogenin A drives LXR to trigger lethal autophagy in cancers” (Nature Communications, 2017).
# Values joined by “and” are separate entries in the source; they are usually repeats but may differ in a detail not shown here. Equal entries are not always repeated.
# Tests used:
# [1] = biological target: T1, human liver-X-receptor LXRβ (Homo sapiens, UniProt P55055); assay: LXRE-luciferase gene reporter assay in HEK293T, LXRβ; assay type: cell-based; settings: LXRβ; 10 µM 22(R)HC; read-out: IC50, inhibition of LXR-dependent luciferase activity stimulated by 22(R)HC
# T1 construct: expressed in transfected cells; host or cells: HEK293T
# T1 sequence (P55055 whole entry): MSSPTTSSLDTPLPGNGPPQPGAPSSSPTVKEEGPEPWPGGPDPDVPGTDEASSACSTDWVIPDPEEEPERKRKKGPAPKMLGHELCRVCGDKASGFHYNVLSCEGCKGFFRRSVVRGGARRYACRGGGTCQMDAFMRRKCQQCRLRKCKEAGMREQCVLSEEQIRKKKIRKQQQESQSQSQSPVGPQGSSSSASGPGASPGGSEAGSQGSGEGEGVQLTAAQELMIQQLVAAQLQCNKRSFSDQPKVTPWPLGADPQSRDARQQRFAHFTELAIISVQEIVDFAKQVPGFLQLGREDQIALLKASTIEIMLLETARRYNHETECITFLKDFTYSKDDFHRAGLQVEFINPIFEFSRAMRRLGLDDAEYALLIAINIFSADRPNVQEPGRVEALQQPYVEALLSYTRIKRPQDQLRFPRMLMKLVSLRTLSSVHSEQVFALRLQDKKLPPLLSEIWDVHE
# T1 sequence (P48443 whole entry partner): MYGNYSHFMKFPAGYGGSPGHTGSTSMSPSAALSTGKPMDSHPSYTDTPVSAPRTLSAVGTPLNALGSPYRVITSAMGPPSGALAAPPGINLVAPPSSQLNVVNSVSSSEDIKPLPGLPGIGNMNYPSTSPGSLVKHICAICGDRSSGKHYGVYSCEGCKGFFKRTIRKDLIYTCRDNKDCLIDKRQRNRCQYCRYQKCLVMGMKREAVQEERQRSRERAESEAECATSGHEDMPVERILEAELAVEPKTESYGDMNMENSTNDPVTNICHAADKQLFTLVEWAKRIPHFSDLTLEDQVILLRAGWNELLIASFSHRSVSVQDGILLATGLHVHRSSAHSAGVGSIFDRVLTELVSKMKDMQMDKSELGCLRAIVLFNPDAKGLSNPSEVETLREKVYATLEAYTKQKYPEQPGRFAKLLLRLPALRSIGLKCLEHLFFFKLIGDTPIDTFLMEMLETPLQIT
# Excerpt: HEK293T were used for luciferase assays. Cells were transfected using the PolyEthylenImine (PEI) method with human retinoid-X receptor (RXRγ) and human liver-X-receptors (LXRα or LXRβ) with LXRE-Luc; RXRγ and human farnesoid X receptor (FXR) with EcRE-Luc; RXRγ and human steroid and xenobiotic X receptor (SXR) with DR4-Luc; RXRγ and human peroxisome proliferator activated receptors (PPARα, or PPARγ) with PPRE-Luc; RXRγ and human retinoic acid receptor (RARα) with DR1-Luc; human AHR and human ARNT with a DRE-Luc; human vitamin D receptor (VDR) with VDRE-Luc. Cells were transfected with plasmids encoding human glucocorticoid receptor (GR), progesterone receptor (PR), or androgen receptor (AR) with MMTV-Luc; or estrogen receptors (ERα and ERβ) with an ERE-Luc. The day after transfection with the luciferase reporter gene construct, cells were seeded in 12-well plates (50,000 cells per well). […] Luciferase activity was measured using the luciferase assay reagent (Promega), according to the manufacturer’s instructions. Protein concentrations were measured using the Bradford method to normalize luciferase activities. For each condition, luciferase activity was calculated from the data of three independent wells.
# B16F10 cells [2] = assay: Cell cycle analysis by flow cytometry; assay type: cell-based, mouse; settings: 5 µM DDA, 48 h
# Protocol: (§1) Control and DDA-treated cells were fixed in 70% ethanol and then washed with PBS. Cells were incubated with 100 μg/ml RNase A for 30 min at 37 °C, permeabilized with 0.25% Tween-20, and stained with 50 μg/ml propidium iodide (PI) for 30 min at 37 °C. The DNA content of stained cells was analyzed by flow cytometry. The fraction of cells in sub-G1 phase was calculated using flowJo software (Ashland, Oregon). Data were obtained from 10^5 viable cells. […]
# SKMEL-28 cells = assay: Cell cycle analysis by flow cytometry; assay type: cell-based, human; settings: 5 µM DDA, 48 h
# Protocol: as §1
# B16F10 cells [3] = assay: Immunoblot densitometry (LC3-II); assay type: cell-based, mouse; settings: 2.5 µM DDA, 24 h
# Protocol: Immunoblotting was carried out as described previously. Proteins were separated on SDS-PAGE gels, electro-transferred onto polyvinylidene difluoride membranes and incubated overnight at 4 °C with the following antibodies: anti-Atg3, anti-Atg5 (D1G9), anti-Atg7 (D12B11), anti-Beclin (D40C5), anti-caspase-3 (Cell Signaling), anti-Bcl-2 (Millipore), anti-Bax (Millipore), anti-LC3 (Sigma-Aldrich), anti-LXRα (SantaCruz), anti-LXRβ (SantaCruz), anti-Nur77 (Active motif), anti-NOR1 (R&D systems), anti-PARP (Cell Signaling), anti-Vps34 (Cell Signaling), or anti-Actin (Millipore). For visualization, an ECL plus kit (Amersham Biosciences) was used, and chemiluminescence was measured by autoradiography (Supplementary Fig. 9). Specific bands were quantified with ImageQuant software.
# HL60 cells = HL60 cells orthotopically engrafted (i.v.) into NSG mice; assay type: in vivo; settings: for reduction of the number of HL60 cells in bone marrow and brain / reduction of HL60 cell viability in bone marrow and brain: 16 days; for reduction of HL60 cell viability in bone marrow and brain: Annexin-V
# Protocol: The engraftment of human primary AML cells was performed on NSG mice. Briefly, human primary AML cells, HL60 cells or normal CD34+ cells were resuspended in PBS, and 0.8 × 10^6 to 2 × 10^6 viable trypan blue-negative cells were injected intravenously into NSG mice that had been previously irradiated for 24 h with 2.25 Gy. […] The viability of AML cells was established by quantifying the percentage of hCD45+CD33+Annexin-V- cells.
# in vivo = assay: in vivo; parameters: species or system NSG mice; settings: mouse, 20 mg/kg
# Protocol: Administration R oute p.o. i. p. i. v.
# T 1/2 distribution (h) - - 0.11*** […]
# Bars represent S.E.M. ( ***P<0.001, **P<0.01, t test).
# (also on this page, place not known: plasma times treatment mice administration plasma times treatment mice administration mg/kg mg/kg Summary pharmacokinetic parameters mice. were measured daily administration mg/kg days. (***P<0.001, mg/kg DDA in plasma (p.o.) (p.o.) DDA in plasma (µM) i.p. i.v. (mg/kg) 20 T1/2 0.1 T1/2 elimination 1.0 T1/2 - Bioavailability (%EP) (µM) 370 Tmax 0.002 marrow 0.01 0.1 1 10 Control DDA DDA level (µM) ***)
smiles,measurement,setting,value
"CC(C)CCC[C@@H](C)[C@H]1CC[C@H]2[C@@H]3C[C@@H](NCCc4cnc[nH]4)[C@@]4(O)C[C@@H](O)CC[C@]4(C)[C@H]3CC[C@]12C [DDA, Dendrogenin A]",IC50,[1],76 ± 12 nM
same,Cell cycle distribution: G0/G1,B16F10 cells [2],54.50%
same,Cell cycle distribution: G2/M,B16F10 cells [2],9.83%
same,Cell cycle distribution: S,B16F10 cells [2],9.68%
same,Cell cycle distribution: Sub G0/G1,B16F10 cells [2],25.03%
same,Cell cycle distribution: G0/G1,SKMEL-28 cells,51.80%
same,Cell cycle distribution: G2/M,SKMEL-28 cells,4.93%
same,Cell cycle distribution: S,SKMEL-28 cells,8.99%
same,Cell cycle distribution: Sub G0/G1,SKMEL-28 cells,34.28%
same,"LC3-II protein, densitometry",B16F10 cells [3]; B16F10 siATG7,0.8
same,"LC3-II protein, densitometry",B16F10 cells [3]; B16F10 siBECN1,1.3
same,"LC3-II protein, densitometry",B16F10 cells [3]; B16F10 siNOR1 + siNur77,0.8
same,"LC3-II protein, densitometry",B16F10 cells [3]; B16F10 siNOR1,0.8
same,"LC3-II protein, densitometry",B16F10 cells [3]; B16F10 siNur77,1.1
same,"LC3-II protein, densitometry",B16F10 cells [3]; B16F10 siSC,2.5 and 1.8 and 2.3
same,"LC3-II protein, densitometry",B16F10 cells [3]; B16F10 siVPS34,1.9
same,reduction of the number of HL60 cells in bone marrow and brain,HL60 cells; 20 mg/kg/day i.p.,60.5 ± 11%
same,reduction of HL60 cell viability in bone marrow and brain,HL60 cells; 20 mg/kg/day i.p.,21.9 ± 6%
same,reduction of the number of HL60 cells in bone marrow and brain,HL60 cells; 40 mg/kg/day p.o.,47 ± 9%
same,reduction of HL60 cell viability in bone marrow and brain,HL60 cells; 40 mg/kg/day p.o.,17.3 ± 5%
same,overall survival of HL60-engrafted mice,"HL60 cells; 40 mg/kg/day p.o., after disease establishment",significantly improved the survival
same,Cmax,"in vivo; NSG, ip",6.1 ± 0.95 µM
same,Plasma clearance,"in vivo; NSG, ip",28 mL/min/kg
same,Tmax,"in vivo; NSG, ip",2 h
same,half-life,"in vivo; NSG, ip, T1/2 absorption",19 h
same,half-life,"in vivo; NSG, ip, T1/2 elimination",0.9 h
same,Cmax,"in vivo; NSG, iv",370 µM
same,Tmax,"in vivo; NSG, iv",0.002 h
same,clearance,"in vivo; NSG, iv",27 mL/min/kg
same,half-life,"in vivo; NSG, iv, T1/2 distribution",0.1 h
same,half-life,"in vivo; NSG, iv, T1/2 elimination",0.6 h
same,Cmax,"in vivo; NSG, po",5.05 µM
same,Plasma clearance,"in vivo; NSG, po",26.2 mL/min/kg
same,Tmax,"in vivo; NSG, po",3 h
same,half-life,"in vivo; NSG, po, T1/2 absorption",43 h
same,half-life,"in vivo; NSG, po, T1/2 elimination",1 h
same,Bioavailability,in vivo; iv,100 % EP
